Results as given in PMC9403976, “Elucidating the path to Plasmodium prolyl-tRNA synthetase inhibitors that overcome halofuginone resistance” (Nature Communications, 2022).
Several values for one entry are separate records, joined by “and”; a condition that tells them apart may be missing. Identical values can stand only once.

Key:
P. falciparum Dd2-2D4 = test: P. falciparum asexual blood stage (ABS) growth assay, SYBR Green, 72 h, wild-type parasites; format: cell-based, Plasmodium falciparum; conditions: for parasite growth, replicate wells (Fig 1b): Dd2-2D4
[1] = tested on: HFGR-I P. falciparum (elevated proline homeostasis and PfcProRS^L482H); test: P. falciparum ABS growth assay, SYBR Green, 72 h, HFGR-I parasites; format: cell-based, Plasmodium falciparum; conditions: HFGR-I, listed as Halofuginone (1)
In short: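 Dd2-derived erythrocytic-stage parasites at 1% parasitemia and 1% hematocrit in RPMI + 0.5% Albumax were exposed to compounds in triplicate dose-response. Controls were 10 μM dihydroartemisinin (kill) and no-compound wells (growth). Growth was read by SYBR Green 1 fluorescence after 72 h and used to derive EC50.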

HsProRS = HsProRS (Homo sapiens, UniProt P07814); test: TR-FRET ligand displacement assay with tracer MAT379 (CoraFluor-1-Halo and anti-His6 antibody formats); format: binding; set-up: made in house; host or cells: E. coli SoluBL-21; conditions: for TR-FRET dose-response, normalized signal (SI Fig 11): individual replicates
[2] = Log[inhibitor] (M) -5.000, listed as Halofuginone (1)

Chain of HsProRS (P07814 996-1512): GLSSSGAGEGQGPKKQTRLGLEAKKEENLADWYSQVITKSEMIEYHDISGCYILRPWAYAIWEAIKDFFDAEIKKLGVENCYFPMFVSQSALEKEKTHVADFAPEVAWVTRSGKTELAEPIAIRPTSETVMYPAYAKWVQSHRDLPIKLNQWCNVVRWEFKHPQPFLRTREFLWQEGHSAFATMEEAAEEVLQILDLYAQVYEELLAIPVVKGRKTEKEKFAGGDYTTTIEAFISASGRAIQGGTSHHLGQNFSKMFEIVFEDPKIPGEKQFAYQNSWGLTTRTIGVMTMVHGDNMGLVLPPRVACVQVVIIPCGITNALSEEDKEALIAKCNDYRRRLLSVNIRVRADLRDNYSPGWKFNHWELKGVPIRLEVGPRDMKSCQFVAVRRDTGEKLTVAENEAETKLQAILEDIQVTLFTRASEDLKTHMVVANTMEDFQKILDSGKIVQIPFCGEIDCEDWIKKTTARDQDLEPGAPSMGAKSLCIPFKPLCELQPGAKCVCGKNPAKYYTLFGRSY

With `O=C(CC1NCCCC1O)Cn1cnc2cc(Br)c(Cl)cc2c1=O` (stereo not shown) [Halofuginone] the “parasite growth, replicate wells (Fig 1b)” value (shortened to “parasite growth”) (P. falciparum Dd2-2D4; Log[inhibitor] (M) -7.000) was 1.00E+00, the “parasite growth” value (P. falciparum Dd2-2D4; Log[inhibitor] (M) -7.301) was 1.00E+00 and the “parasite growth” value (P. falciparum Dd2-2D4; Log[inhibitor] (M) -7.602, listed as Halofuginone (1)) was 0.00E+00 (2×) and 1.00E+00. For the same compound, the “parasite growth” value (P. falciparum Dd2-2D4; Log[inhibitor] (M) -7.903, listed as Halofuginone (1)) was 2.00E+00 (2×) and 0.00E+00, the “parasite growth” value (P. falciparum Dd2-2D4; Log[inhibitor] (M) -8.204, listed as Halofuginone (1)) was 1.00E+00 (2×) and 0.00E+00 and the “parasite growth” value (P. falciparum Dd2-2D4; Log[inhibitor] (M) -8.505) was 0.00E+00. The “parasite growth” value (P. falciparum Dd2-2D4; Log[inhibitor] (M) -8.806, listed as Halofuginone (1)) was 0.00E+00 (2×) and -1.00E+00, the “parasite growth” value (P. falciparum Dd2-2D4; Log[inhibitor] (M) -9.107, listed as Halofuginone (1)) was 5.00E+00 (2×) and 4.00E+00 and the “parasite growth” value (P. falciparum Dd2-2D4; Log[inhibitor] (M) -9.408, listed as Halofuginone (1)) was 9.10E+01 and 8.70E+01 and 8.90E+01. The “parasite growth” value (P. falciparum Dd2-2D4; Log[inhibitor] (M) -9.709, listed as Halofuginone (1)) was 1.04E+02 and 1.07E+02 (2×), the “parasite growth” value (P. falciparum Dd2-2D4; Log[inhibitor] (M) -10.010, listed as Halofuginone (1)) was 1.06E+02 and 1.04E+02 (2×) and the “parasite growth” value (P. falciparum Dd2-2D4; Log[inhibitor] (M) -10.311, listed as Halofuginone (1)) was 9.80E+01 and 9.90E+01 and 9.70E+01. The EC50 (P. falciparum Dd2-2D4; Plasmodium falciparum, DD2, SI Fig 16b, values on -log scale, read-out: ABS - Dd2-2D4 (converted)) was 0.519 nM, the “parasite growth” value ([1]; Log[inhibitor] (M) -5.204) was 3.00E+00 and 2.00E+00 and 4.00E+00 and the “parasite growth” value ([1]; Log[inhibitor] (M) -5.505) was 4.00E+00 (2×) and 3.00E+00. For the same compound, the “parasite growth” value ([1]; Log[inhibitor] (M) -5.806) was 3.00E+00 (2×) and 4.00E+00, the “parasite growth” value ([1]; Log[inhibitor] (M) -6.107) was 6.00E+00 (2×) and 5.00E+00 and the “parasite growth” value ([1]; Log[inhibitor] (M) -6.408) was 1.70E+01 (2×) and 1.60E+01. For the same compound, the “parasite growth” value ([1]; Log[inhibitor] (M) -6.709) was 5.40E+01 and 5.50E+01 (2×), the “parasite growth” value ([1]; Log[inhibitor] (M) -7.000) was 7.70E+01 and 8.00E+01 and 8.50E+01 and the “parasite growth” value ([1]; Log[inhibitor] (M) -7.010) was 8.50E+01 and 8.60E+01 and 8.30E+01. For the same compound, the “parasite growth” value ([1]; Log[inhibitor] (M) -7.301) was 9.80E+01 and 1.03E+02 and 9.90E+01, the “parasite growth” value ([1]; Log[inhibitor] (M) -7.311) was 9.50E+01 and 9.00E+01 and 9.10E+01 and the “parasite growth” value ([1]; Log[inhibitor] (M) -7.602) was 1.01E+02 and 1.03E+02 and 1.05E+02. For the same compound, the “parasite growth” value ([1]; Log[inhibitor] (M) -7.903) was 1.04E+02 and 1.03E+02 and 1.06E+02, the “parasite growth” value ([1]; Log[inhibitor] (M) -8.204) was 1.05E+02 and 1.07E+02 and 1.03E+02 and the “parasite growth” value ([1]; Log[inhibitor] (M) -8.505) was 1.06E+02 and 1.04E+02 and 1.02E+02. For the same compound, the “normalized TR-FRET signal (Fig 2j)” value (HsProRS; Halofuginone series, Log[inhibitor] (M) -5.301) was 4.67E-01 and 4.34E-01 and 5.01E-01, the “normalized TR-FRET signal (Fig 2j)” value (HsProRS; Halofuginone series, Log[inhibitor] (M) -5.602) was 6.44E-01 and 5.92E-01 and 5.65E-01 and the “normalized TR-FRET signal (Fig 2j)” value (HsProRS; Halofuginone series, Log[inhibitor] (M) -7.107) was 1.11E+00 and 9.45E-01 and 9.98E-01. For the same compound, the Kd (HsProRS; HsProRS - best Kd, SI Fig 16a, values on -log scale) was 0.225 nM, the “TR-FRET dose-response, normalized signal (SI Fig 11)” value (HsProRS; [2]) was 1.22E-01 and 1.04E-01 and 9.99E-02 and the “normalized TR-FRET ligand displacement signal, dose-response replicates (SI Fig 6)” value (HsProRS; [2]) was 8.67E-01 and 9.21E-01 and 8.89E-01. For the same compound, the “normalized TR-FRET ligand displacement signal, dose-response replicates (SI Fig 6)” value (HsProRS; Log[inhibitor] (M) -5.258, listed as Halofuginone (1)) was 9.18E-01 and 9.29E-01 and 9.59E-01, the “TR-FRET dose-response, normalized signal (SI Fig 11)” value (HsProRS; Log[inhibitor] (M) -5.301, listed as Halofuginone (1)) was 2.23E-01 and 2.19E-01 and 2.35E-01 and the “normalized TR-FRET ligand displacement signal, dose-response replicates (SI Fig 6)” value (HsProRS; Log[inhibitor] (M) -5.517, listed as Halofuginone (1)) was 9.53E-01 and 1.02E+00 (2×). The “TR-FRET dose-response, normalized signal (SI Fig 11)” value (HsProRS; Log[inhibitor] (M) -5.602, listed as Halofuginone (1)) was 3.79E-01 and 3.48E-01 and 2.87E-01, the “normalized TR-FRET ligand displacement signal, dose-response replicates (SI Fig 6)” value (HsProRS; Log[inhibitor] (M) -5.775, listed as Halofuginone (1)) was 1.06E+00 and 1.00E+00 and 1.07E+00 and the “normalized TR-FRET signal (Fig 2j)” value (HsProRS; Log[inhibitor] (M) -5.903) was 7.44E-01 and 8.56E-01 and 7.84E-01. The “TR-FRET dose-response, normalized signal (SI Fig 11)” value (HsProRS; Log[inhibitor] (M) -5.903, listed as Halofuginone (1)) was 5.30E-01 and 5.36E-01 and 5.41E-01, the “normalized TR-FRET ligand displacement signal, dose-response replicates (SI Fig 6)” value (HsProRS; Log[inhibitor] (M) -6.018, listed as Halofuginone (1)) was 1.05E+00 and 1.10E+00 and 1.02E+00 and the “normalized TR-FRET signal (Fig 2j)” value (HsProRS; Log[inhibitor] (M) -6.204) was 8.25E-01 and 9.54E-01 and 7.75E-01. The “TR-FRET dose-response, normalized signal (SI Fig 11)” value (HsProRS; Log[inhibitor] (M) -6.204, listed as Halofuginone (1)) was 7.34E-01 and 7.40E-01 and 6.73E-01, the “normalized TR-FRET ligand displacement signal, dose-response replicates (SI Fig 6)” value (HsProRS; Log[inhibitor] (M) -6.281, listed as Halofuginone (1)) was 1.08E+00 and 1.03E+00 and 1.07E+00 and the “normalized TR-FRET signal (Fig 2j)” value (HsProRS; Log[inhibitor] (M) -6.505) was 1.04E+00 and 9.85E-01 and 1.03E+00. The “TR-FRET dose-response, normalized signal (SI Fig 11)” value (HsProRS; Log[inhibitor] (M) -6.505) was 7.32E-01, the “TR-FRET dose-response, normalized signal (SI Fig 11)” value (HsProRS; Log[inhibitor] (M) -6.505, listed as Halofuginone (1)) was 7.86E-01 and 7.92E-01 and the “normalized TR-FRET ligand displacement signal, dose-response replicates (SI Fig 6)” value (HsProRS; Log[inhibitor] (M) -6.535, listed as Halofuginone (1)) was 1.04E+00 and 1.03E+00 and 9.64E-01. The “normalized TR-FRET ligand displacement signal, dose-response replicates (SI Fig 6)” value (HsProRS; Log[inhibitor] (M) -6.796, listed as Halofuginone (1)) was 1.04E+00 and 1.03E+00 (2×), the “normalized TR-FRET signal (Fig 2j)” value (HsProRS; Log[inhibitor] (M) -6.806) was 9.63E-01 and 9.86E-01 and 9.32E-01 and the “TR-FRET dose-response, normalized signal (SI Fig 11)” value (HsProRS; Log[inhibitor] (M) -6.806, listed as Halofuginone (1)) was 8.94E-01 and 8.80E-01 and 8.52E-01. For the same compound, the “normalized TR-FRET ligand displacement signal, dose-response replicates (SI Fig 6)” value (HsProRS; Log[inhibitor] (M) -7.056, listed as Halofuginone (1)) was 1.05E+00 and 1.11E+00 and 1.07E+00, the “TR-FRET dose-response, normalized signal (SI Fig 11)” value (HsProRS; Log[inhibitor] (M) -7.107, listed as Halofuginone (1)) was 9.88E-01 and 8.65E-01 and 9.16E-01 and the “normalized TR-FRET ligand displacement signal, dose-response replicates (SI Fig 6)” value (HsProRS; Log[inhibitor] (M) -7.319, listed as Halofuginone (1)) was 1.04E+00 (2×) and 1.02E+00. For the same compound, the “normalized TR-FRET signal (Fig 2j)” value (HsProRS; Log[inhibitor] (M) -7.408) was 1.05E+00 and 9.28E-01 and 8.93E-01, the “TR-FRET dose-response, normalized signal (SI Fig 11)” value (HsProRS; Log[inhibitor] (M) -7.408, listed as Halofuginone (1)) was 9.10E-01 and 9.40E-01 and 9.15E-01 and the “normalized TR-FRET ligand displacement signal, dose-response replicates (SI Fig 6)” value (HsProRS; Log[inhibitor] (M) -7.553) was 1.10E+00. For the same compound, the “normalized TR-FRET ligand displacement signal, dose-response replicates (SI Fig 6)” value (HsProRS; Log[inhibitor] (M) -7.553, listed as Halofuginone (1)) was 1.16E+00, the “normalized TR-FRET signal (Fig 2j)” value (HsProRS; Log[inhibitor] (M) -7.709) was 9.59E-01 and 9.28E-01 and 9.82E-01 and the “TR-FRET dose-response, normalized signal (SI Fig 11)” value (HsProRS; Log[inhibitor] (M) -7.709, listed as Halofuginone (1)) was 9.34E-01 (2×) and 9.38E-01. The “normalized TR-FRET ligand displacement signal, dose-response replicates (SI Fig 6)” value (HsProRS; Log[inhibitor] (M) -7.796, listed as Halofuginone (1)) was 1.10E+00 and 1.04E+00 and 1.03E+00, the “normalized TR-FRET signal (Fig 2j)” value (HsProRS; Log[inhibitor] (M) -8.010) was 9.03E-01 and 1.00E+00 and 9.95E-01 and the “TR-FRET dose-response, normalized signal (SI Fig 11)” value (HsProRS; Log[inhibitor] (M) -8.010, listed as Halofuginone (1)) was 9.18E-01 and 9.71E-01 and 9.55E-01. The “normalized TR-FRET ligand displacement signal, dose-response replicates (SI Fig 6)” value (HsProRS; Log[inhibitor] (M) -8.097, listed as Halofuginone (1)) was 1.01E+00 and 1.03E+00 and 1.08E+00, the “normalized TR-FRET signal (Fig 2j)” value (HsProRS; Log[inhibitor] (M) -8.311) was 9.63E-01 and 1.06E+00 and 1.04E+00 and the “TR-FRET dose-response, normalized signal (SI Fig 11)” value (HsProRS; Log[inhibitor] (M) -8.311, listed as Halofuginone (1)) was 9.28E-01 and 9.37E-01 and 9.39E-01. The “normalized TR-FRET ligand displacement signal, dose-response replicates (SI Fig 6)” value (HsProRS; Log[inhibitor] (M) -8.398, listed as Halofuginone (1)) was 1.06E+00 and 1.03E+00 and 1.05E+00.
